Paper PMC9499506, “TNF-α and IL-1β Modulate Blood-Brain Barrier Permeability and Decrease Amyloid-β Peptide Efflux in a Human Blood-Brain Barrier Model” (International Journal of Molecular Sciences, 2022)

Assays:
BLECs [1] = test: Immunostaining of tight junction proteins in BLECs (localization, area fraction staining); assay type: cell-based, human; conditions: 10 ng·mL^−1, 24 h; for BLEC morphology and TJ protein localization: immunofluorescence of ZO-1, occludin, claudin-3, claudin-5
Procedure: After 24 h of treatment with or without proinflammatory cytokines, BLECs were fixed and permeabilized, as described in Table 1. Then, a blocking step was performed with Sea Block Blocking Buffer (#37527 from Thermofisher, Rockford, IL, USA) for 30 min. BLECs were incubated for 1 h with the primary antibody in phosphate buffered saline, calcium-magnesium-free (PBS-CMF; 0.2 g·L^−1 KH2PO4, 8.0 g·L^−1 NaCl, 2.87 g·L^−1 Na2HPO4–12H2O, and 0.2 g·L^−1 KCl) with 2% (v/v) normal goat serum (NGS) at room temperature (RT) against targeted proteins, as described in Table 1.
After three washes with PBS-CMF supplemented with 2% NGS, BLECs were incubated with secondary polyclonal antibody (goat anti-rabbit Alexa 568, A11036, Molecular Probes, Eugene, OR, USA) diluted 1:500 in PBS-CMF supplemented with 2% NGS in the dark for 30 min at RT. Then, ProLong™ Diamond Antifade Mountant with DAPI (#P36962, Invitrogen) was used for nuclei staining and mounting. The stained slides were conserved in the fridge. The staining images were taken using a Leica microscope (DMRD; Leica Microsystems, Wetzlar, Germany) and processed using ImageJ software.
Claudin-3 and claudin-5 area fraction staining were subsequently quantified within the BLECs using ImageJ software. Staining images from the same experiment were taken with the same threshold according to the staining, and could thus be compared with each other. Due to the absence of BLEC delineation, the total fraction area staining for each image was thus quantified and normalized by the number of nuclei. Studies were performed with at least three independent experiments and at least three randomized staining images per experiment containing around 50 BLECs each.

BLECs [2] = test: Western immunoblotting of receptors/transporters involved in Aβ peptide transport in BLECs; assay type: cell-based, human; conditions: 10 ng·mL^−1, 24 h; for downregulation of BCRP protein level compared to control / downregulation of LRP1 protein level compared to control: normalized to β-actin
Procedure: Each condition was studied in triplicate.
After 24 h of treatments with or without proinflammatory cytokines, BLECs were washed twice with cold RH buffer and scraped with 70 μL of RIPA 1X lysis buffer (10 mM Tris-Cl (pH 8.0), 1 mM EDTA, 0.5 mM EGTA, 1% Triton X-100, 0.1% sodium deoxycholate, 0.1% SDS, 140 mM NaCl) (Merck Millipore, Burlington, MA, USA) or UT4 lysis buffer (7M Urea, 2M Thiourea, 4% CHAPS), both supplemented with a cocktail of phosphatase and protease inhibitors (1% protease inhibitors cocktail #P8340; 1% phosphatase inhibitors cocktail 1 P2850; 1% phosphatase inhibitors cocktail 2 #P5726; 1% protease inhibitors cocktail #P8340) purchased from Sigma-Aldrich (Lyon, France). Then, a centrifugation at 10,000 rpm for 10 min at 4 °C was achieved to save the supernatant of the lysate. This was later sonicated two times for 5 s on ice. The concentration of the protein lysate was quantified using the Bradford method (#5000006; rad, Munich, Germany). The protein samples were then stored at −20 °C.
20 μg of total protein was mixed with Laemmli 4X (#1610747; Biorad, Munich, Germany) supplemented with β-mercaptoethanol (Sigma-Aldrich, Germany). Depending on the protein target, details of the denaturation and reduction steps of the protein extract are described in Table 3. Then, the protein mixes were electrophoresed using Criterion™ TGX™ (Tris-Glycine eXtended) precast gels (Biorad, Munich, Germany) and subsequently electrotransferred to nitro-cellulose membranes (GE Healthcare, Munich, Germany). Once the previous step was completed, Tris-buffered saline 0.1% Tween 20 (TBST; 20 mM Tris-HCl, pH 8.0, 500 mM NaCl, 0.1% Tween 20) supplemented with 5% skimmed milk was added on membrane to block nonspecific binding sites for 1 h under agitation at RT. Membranes were incubated in the appropriate primary antibodies (as described in Table 3) and incubated at 4 °C overnight, except β-actin (20 min at RT).
The following morning, the membranes were rinsed with TBST three times for 5 min each under agitation, and then incubated with the horseradish peroxidase-conjugated secondary antibody anti-rabbit (1:8000, Dako/Agilent Technologies, Inc., Santa Clara, CA, USA) or secondary antibody anti-mouse (1:5000, Dako/Agilent Technologies, Inc., Santa Clara, CA, USA) for 1 h at RT. […] Quantification of the relative densities of bands was performed with TotalLab TL 100 1D Gel Analysis software (Nonlinear Dynamics, Newcastle, UK). The protein expression normalization was conducted with anti-β-actin. Studies were performed with at least three independent experiments, with at least two Western immunoblottings per experiment.

[3] = immunofluorescence, ImageJ, normalized by number of nuclei

Substance | BLEC morphology and TJ protein localization (BLECs [1]) | P-gp protein expression compared to control (BLECs [2]) | PICALM protein expression compared to control (BLECs [2]) | RAGE protein expression compared to control (BLECs [2]) | downregulation of BCRP protein level compared to control (BLECs [2]) | downregulation of LRP1 protein level compared to control (BLECs [2]) | increase of claudin-5 area fraction staining compared to IL-1β treatment (BLECs [1]; [3]) | increase of claudin-5 area fraction staining compared to control condition (BLECs [1]; [3]) | claudin-3 area fraction staining, increase compared to IL-1β treatment (BLECs [1]; immunofluorescence, ImageJ, normalized by number of nuclei, printed as 'at')
interleukin-1β [IL-1β] | did not cause changes in BLEC morphology and TJ protein localization | no significant change | induced an increase of PICALM protein expression | no significant change | 49.0% | 45.2% | – | – | –
tumor necrosis factor-α [TNF-α] | induces a change in BLEC morphology and an increase of claudin-3 and claudin-5 cytoplasmic staining | no significant change | did not affect PICALM protein expression | no significant change | 73.4% | 41.9% | 162.1% | 161.8% | 129.8%
